Data set [1] has as its system Ca++/calmodulin-dependent protein kinase. The data set is described as follows: Phosphorylation of the 20K protein in platelets. The class given is cell-based. The conditions noted are these: concentrations which completely abolished phosphorylation of the 40K protein.
Data set [2] relates to phorbol ester receptor of HL-60 cells (protein kinase C). The data set is described as follows: Competition for [3H]phorbol dibutyrate binding by HL-60 cells. More on the design: species or system human. The conditions noted are these: 12 nM [3H]phorbol dibutyrate, 1 h at 37°; read-out: 50% inhibition of [3H]phorbol dibutyrate binding. The method, then: Competitive binding assays were conducted as described by Goodwin and Weinberg (J. Clin. Invest, 70, 699-706, 1982 and Ebling et al (ibid.). Approximately 1×10^6 cells/ml were incubated with 12 nM [^3 H]phorbol dibutyrate (8.3 Ci/mmol) and varying concentrations of sphinganine (1:1 with BSA) for 1 h at 37°. The cells were recovered on Millipore filters, washed, and counted. The data were corrected for nonspecific binding by subtracting the cpm obtained in the presence of 300 nM PMA.

The subject of data set [3] is HL-60 cells. The data set is described as follows: Dioctanoylglycerol-induced attachment of HL-60 cells. The class given is cell-based. The conditions noted are these: Homo sapiens. Here is the method: When 1,2-dioctanoylglycerol was used, the cells were treated essentially as described by Ebling et al Proc. Natl. Acad. Sci. U.S.A. 82, 815-819, 1985. Sphinganine was added to the cells, then dioctanoylglycerol in 1 μl of ethanol to yield 100 μM, followed by additional maintenance additions of 20 μm diacylglycerol every 2 h for 12 h.

A short description of data set [4]: Neutrophil viability (Trypan Blue exclusion, LDH release). The class given is cell-based. The conditions noted are these: human, neutrophils, 50 μM sphinganine, 1.2×10^7 cells/ml. Here is the method: Cell viability was assessed by two criteria: Trypan Blue exclusion and release of the cytosolic enzyme, lactate dehydrogenase (LDH). LDH activity was monitored by following the oxidation of NADH at 340 nm. […] Trypan Blue exclusion was determined microscopically.
A general note: LDH leaks from cells whose membrane has failed.

The subject of data set [5] is human neutrophils. The data set is described as follows: [32P]-phosphate incorporation into TCA-precipitable material of neutrophils. The class given is cell-based. Here is the method:
Neutrophils (1.4×10^8 cells) were preincubated in with 0.5 mCi Na2 H^32 PO4 in buffer containing […] NaCl, 5.56 mM glucose, 10 mM Hepes, and 0.33 mM CaCl2 for a total of 1 hr at 37° C. in a shaking waterbath. Excess unbound counts were removed by centrifugation and resuspension, repeated five times. The cells were then divided into 4 treatment groups (see RESULTS below) containing approximately 3.5×10^7 cells each. All groups were incubated at 37° C. in a shaking waterbath for the same total time. Some samples were incubated 10 min. with sphinganine (40 μM) prior to addition of 1 μM PMA (final concentration), with which they were incubated for an additional 15 min. The reaction was stopped by addition of an equal volume of boiling SDS dissociation buffer (9% SDS, 1% mercaptoethanol, 15% glycerol, 30 mM Tris, pH 7.8). The samples were run on a 12% SDS-polyacrylamide gel using the method of Rudolph and Krueger (Adv. Cyclic Nucleotide Res. 101, 107-133, 1979). The gels were dried using a Bio-Rad model 2400 Gel Slab Dryer. Autoradiography was performed on the dried gels using Kodak X-omat X-ray film and Dupont Cronex intensifying screens. The gels were exposed for 12 hrs at -70° C.
Alternatively, neutrophils were preincubated as described above using 0.1 mCi of ^32 P labeled phosphate. The cells were broken by 5 min. of sonication using an Ultramet III waterbath sonicator, and 5% (final concentration) trichloroacetic acid was added to each sample. […] The precipitate was filtered and washed extensively using an Amicon filtration system and counted using a Beckman LS7000 scintillation counter.

For data set [6], the system named is neutrophils. The data set is described as follows: Cell association of radiolabeled sphinganine with neutrophils. The class given is in vitro ADME, human. The conditions noted are these: 3, 10, 30 μM plus albumin carrier, 2.5×10^6 cells, 5 min. The method, then: To determine how much inhibitor was actually becoming associated with the cells, radiolabeled sphinganine (3, 10, 30 μM) plus albumin carrier was incubated with neutrophils (2.5×10^6 cells) for 5 min (i.e. a time longer than that needed to achieve inhibition). After washing by centrifugation, the cell-associated radioactivity was measured. Approximately 20% of the added sphinganine became cell-associated. Therefore, because of partitioning between the albumin and the cells, the cellular concentration of sphinganine was considerably less than the total.

Data set [7] has as its target protein kinase C. The data set is described as follows: Mixed micellar protein kinase C activity assay for lysosphingolipids (Table VI). The class given is biochemical. The method, then: TABLE VI: Inhibition of protein kinase C activity and phorbol-dibutyrate binding by lysosphingolipids. […] The remaining two columns show the observed effects of the lysosphingolipids of protein kinase C activity and phorbol diester binding in vitro and in human platelets. Lysogangliosides were prepared from their parental gangliosides by hydrolysis in methanolic KOH esentially as described by Neuenhofer et al. in Bioch. 24, 525, 1985. During this preparation, with approximately 90-95% conversion, the N-acetate of N-acetylneuraminic acid is partially hydrolyzed. Fatty acids were partitioned into heptane after acidification of the methanolic reaction mixture. Galactosylsphingosine, glucosylsphingosine, and lactosylsphingosine were prepared as previously described for galactosylsphingosine (Radin, Lipids 9, 358, 1974) Sphingosylphosphorylcholine was prepared by hydrolysis in HCl-butanol (Kaller, Biochemische Zeitschrift 334, 451, 1961). The purity of the lyso derivatives (greater than 90%) was checked by thin layer chromatography (TLC) on silica gel H plates developed in chloroform/methanol/2N NH4 OH (65/35/9) and visualized by ninhydrin reaction for N-lyso compounds, by α-naphthol/sulfuric acid for both gangliosides and lysogangliosides,and by a phospholipid spray for sphingosylphosphorylcholine. Lysosphingolipids were quantitated by reaction of the amine group with trinitrobenzenesulfonate. Gangliosides and lysosphingolipids were also quantitated by reaction with anthrone. The lysosphingolipids were then studied for their effect on protein kinase C activity. Protein kinase C was purified to near homogeneity by the method of Wolf et al. (J. Biol. Chem. 260, 15718, 1985), and activity was measured using a mixed micellar assay (described herein). Lysosphingolipids were added directly in aqueous solution, and allowed to equilibrate with the Triton X-100 (0.3% w/v) mixed micelles containing 6 mol % phosphatidylserine and 2 mol % dioleoylglycerol. […] Phorbol-dibutyrate binding was measured in a mixed micellar assay. Lysosphingolipids inhibited phorbol-dibutyrate binding to protein kinase C in the presence of Triton X-100 mixed micelles containing 20 mol % phosphatidylserine. […] The difference is related to the higher concentration of phosphatidylserine used in the binding assay, as both activity and binding show a high cooperative dependence on phosphatidylserine, which modulates the inhibition by lysosphingolipids. Phorbol-dibutyrate binding to human platelets and 40 kDa phosphorylation in platelets were carried out as described above. Lysosphingolipids inhibited phorbol dibutyrate binding to human platelets at concentrations in the 10-50 μM range. Inhibition of 40 kDa phosphorylation occurred over the same concentration range.

Where two headings read alike, the source gives them in different places.

For the molecule `CCCCCCCCCCCCCCC[C@@H](O)[C@@H](N)CO` (relative stereo) [Sphinganine, erythro-dihydrosphingosine], the “inhibition of phosphorylation of the 20K protein in platelets” value in data set [1] is recorded as “lack of inhibition”. The IC50 in data set [2] is ~15 µM; in data set [3] (100 μM dioctanoylglycerol, maintenance doses 20 μM every 2 h, read-out: concentration reducing dioctanoylglycerol-induced adherence by 50%), ~5 µM. Further, in data set [3] (1.0 μM sphinganine, compared to cells treated with diacylglycerol only, read-out: % Viable cells attached), the activity at 1 µM is 70 ± 32%. Besides, the activity at 2.5 µM in data set [3] (2.5 μM sphinganine, compared to cells treated with diacylglycerol only, read-out: % Viable cells attached) amounted to 63 ± 21%. Moreover, the activity at 5 µM in data set [3] (5.0 μM sphinganine, compared to cells treated with diacylglycerol only, read-out: % Viable cells attached) amounted to 50 ± 25%. In addition, the viability at 50 µM in data set [4] (read-out: cellular LDH retained) is > 96%; in data set [4] (read-out: viability by Trypan Blue exclusion), > 95%. Further, the “[32P]-phosphate incorporation into TCA-precipitable material” value in data set [5] (PMA (1 μM) plus Sa (25 μM)) was determined as 2845 COUNTS PER MINUTE; in data set [5] (Sa (25 μM)) it was 2506 COUNTS PER MINUTE. Moreover, the “added sphinganine that became cell-associated” value in data set [6] is on record as “Approximately 20%”.
In the case of `CCCCCCCCCCCCC/C=C/[C@@H](O)[C@@H](N)CO` [sphingosine], the “Inhibition of Protein Kinase C, concentration giving 50% inhibition, (mol %)” value in data set [7] (0.3% Triton X-100, 1 mol % = 43 μM) is recorded as 1.9 mol %. Further, the IC50 in data set [7] (0.3% Triton X-100 mixed micelles, 6 mol % phosphatidylserine, 2 mol % dioleoylglycerol, read-out: Inhibition of Protein Kinase C, concentration giving 50% inhibition) was found to be 80 µM.

For the origin of these results see US4937232A, “Inhibition of protein kinase C by long-chain bases” (priority 1988, dated 1990).
